Experimental data published in US10681909B2, “Herbicidal triazoles” (FMC Corporation, priority 2014, dated 2020).

Columns and labels:
[1] = tested on: crabgrass, large; assay: Test A preemergence; assay type: in vivo, Digitaria sanguinalis; settings: 0 to 100 scale (0 no effect, 100 complete control)
Description: (§1) Seeds of plant species selected from barnyardgrass (Echinochloa crus-galli), crabgrass, large (large crabgrass, Digitaria sanguinalis), kochia (Kochia scoparia), ragweed (common ragweed, Ambrosia elatior), foxtail, giant (giant foxtail, Setaria faberii), morningglory (Ipomoea spp.), pigweed (Amaranthus retroflexus), velvetleaf (Abutilon theophrasti), ryegrass, Italian (Italian ryegrass, Lolium multiflorum), wheat (Triticum aestivum), and corn (Zea mays) were planted into a blend of loam soil and sand and treated preemergence with a directed soil spray using test chemicals formulated in a non-phytotoxic solvent mixture which included a surfactant. At the same time, plants selected from these crop and weed species and also blackgrass (Alopecurus myosuroides), and galium (catchweed bedstraw, Galium aparine), were planted in pots containing the same blend of loam soil and sand and treated with postemergence applications of test chemicals formulated in the same manner. Plants ranged in height from 2 to 10 cm and were in the one- to two-leaf stage for the postemergence treatment. […] A dash (-) response means no test result.

[2] = tested on: wheat; assay: Test A preemergence; assay type: in vivo, Triticum aestivum; settings: 0 to 100 scale (0 no effect, 100 complete control)
Description: as §1

[3] = tested on: wheat; assay: Test A postemergence; assay type: in vivo, Triticum aestivum; settings: 0 to 100 scale (0 no effect, 100 complete control), approx. 10 d
Description: as §1

[4] = tested on: sedge, umbrella; assay: Test B flooded paddy test; assay type: in vivo, Cyperus difformis; settings: applied to paddy water at 2-leaf stage, visual rating after 13 to 15 d, scale 0 (no effect) to 100 (complete control)
Description: (§2) At time of treatment, test pots were flooded to 3 cm above the soil surface, treated by application of test compounds directly to the paddy water, and then maintained at that water depth for the duration of the test. Treated plants and controls were maintained in a greenhouse for 13 to 15 d, after which time all species were compared to controls and visually evaluated. […] A dash (-) response means no test result.

[5] = tested on: velvetleaf; assay: Test A preemergence; assay type: in vivo, Abutilon theophrasti; settings: 0 to 100 scale (0 no effect, 100 complete control)
Description: as §1

[6] = tested on: crabgrass, large; assay: Test A postemergence; assay type: in vivo, Digitaria sanguinalis; settings: 0 to 100 scale (0 no effect, 100 complete control), approx. 10 d
Description: as §1

[7] = tested on: foxtail, giant; assay: Test A preemergence; assay type: in vivo, Setaria faberii; settings: 0 to 100 scale (0 no effect, 100 complete control)
Description: as §1

[8] = tested on: corn; assay: Test A postemergence; assay type: in vivo, Zea mays; settings: 0 to 100 scale (0 no effect, 100 complete control), approx. 10 d
Description: as §1

[9] = tested on: ducksalad; assay: Test B flooded paddy test; assay type: in vivo, Heteranthera limosa; settings: applied to paddy water at 2-leaf stage, visual rating after 13 to 15 d, scale 0 (no effect) to 100 (complete control)
Description: as §2

[10] = tested on: pigweed; assay: Test A preemergence; assay type: in vivo, Amaranthus retroflexus; settings: 0 to 100 scale (0 no effect, 100 complete control)
Description: as §1

[11] = tested on: pigweed; assay: Test A postemergence; assay type: in vivo, Amaranthus retroflexus; settings: 0 to 100 scale (0 no effect, 100 complete control), approx. 10 d
Description: as §1

[12] = tested on: morningglory; assay: Test A preemergence; assay type: in vivo, Ipomoea spp.; settings: 0 to 100 scale (0 no effect, 100 complete control)
Description: as §1

[13] = tested on: barnyardgrass; assay: Test A postemergence; assay type: in vivo, Echinochloa crus-galli; settings: 0 to 100 scale (0 no effect, 100 complete control), approx. 10 d
Description: as §1

[14] = tested on: velvetleaf; assay: Test A postemergence; assay type: in vivo, Abutilon theophrasti; settings: 0 to 100 scale (0 no effect, 100 complete control), approx. 10 d
Description: as §1

[15] = tested on: barnyardgrass; assay: Test B flooded paddy test; assay type: in vivo, Echinochloa crus-galli; settings: applied to paddy water at 2-leaf stage, visual rating after 13 to 15 d, scale 0 (no effect) to 100 (complete control)
Description: as §2

[16] = tested on: barnyardgrass; assay: Test A preemergence; assay type: in vivo, Echinochloa crus-galli; settings: 0 to 100 scale (0 no effect, 100 complete control)
Description: as §1

[17] = tested on: foxtail, giant; assay: Test A postemergence; assay type: in vivo, Setaria faberii; settings: 0 to 100 scale (0 no effect, 100 complete control), approx. 10 d
Description: as §1

[18] = tested on: corn; assay: Test A preemergence; assay type: in vivo, Zea mays; settings: 0 to 100 scale (0 no effect, 100 complete control)
Description: as §1

[19] = tested on: rice; assay: Test B flooded paddy test; assay type: in vivo, Oryza sativa; settings: applied to paddy water at 2-leaf stage, visual rating after 13 to 15 d, scale 0 (no effect) to 100 (complete control)
Description: as §2

[20] = tested on: morningglory; assay: Test A postemergence; assay type: in vivo, Ipomoea spp.; settings: 0 to 100 scale (0 no effect, 100 complete control), approx. 10 d
Description: as §1

SMILES	Plant response rating, Crabgrass, Large ([1]; 125 g ai/ha)	Plant response rating, Crabgrass, Large ([1]; 500 g ai/ha, approx. 10 d)	Plant response rating, Wheat ([2]; 125 g ai/ha)	Plant response rating, Wheat ([2]; 500 g ai/ha, approx. 10 d)	Plant response rating, Wheat ([3]; 125 g ai/ha)	Plant response rating, Wheat ([3]; 500 g ai/ha)	Plant response rating, Velvetleaf ([5]; 125 g ai/ha)	Plant response rating, Velvetleaf ([5]; 500 g ai/ha, approx. 10 d)	Plant response rating, Crabgrass, Large ([6]; 125 g ai/ha)	Plant response rating, Crabgrass, Large ([6]; 500 g ai/ha)	Plant response rating, Foxtail, Giant ([7]; 125 g ai/ha)	Plant response rating, Foxtail, Giant ([7]; 500 g ai/ha, approx. 10 d)	Plant response rating, Corn ([8]; 125 g ai/ha)	Plant response rating, Corn ([8]; 500 g ai/ha)	Plant response rating, Pigweed ([10]; 125 g ai/ha)	Plant response rating, Pigweed ([10]; 500 g ai/ha, approx. 10 d)	Plant response rating, Pigweed ([11]; 125 g ai/ha)	Plant response rating, Pigweed ([11]; 500 g ai/ha)	Plant response rating, Morningglory ([12]; 125 g ai/ha)	Plant response rating, Morningglory ([12]; 500 g ai/ha, approx. 10 d)	other results
CCc1nc(-c2cccc(C(F)(F)F)c2)nn1Cc1ccnc(C(F)(F)F)c1 [Compound 11]	20	90	0	0	10	20	0	0	20	60	20	90	20	50	30	100	80	100	0	20	Plant response rating, Sedge, Umbrella, Flood ([4]; 250 g ai/ha): 0; Plant response rating, Ducksalad, Flood ([9]; 250 g ai/ha): 0; Plant response rating, Barnyardgrass ([13]; 125 g ai/ha): 0; Plant response rating, Barnyardgrass ([13]; 500 g ai/ha): 50; Plant response rating, Velvetleaf ([14]; 125 g ai/ha): 50; Plant response rating, Velvetleaf ([14]; 500 g ai/ha): 100; Plant response rating, Barnyardgrass, Flood ([15]; 250 g ai/ha): 0; Plant response rating, Barnyardgrass ([16]; 125 g ai/ha): 0; Plant response rating, Barnyardgrass ([16]; 500 g ai/ha, approx. 10 d): 30; Plant response rating, Foxtail, Giant ([17]; 125 g ai/ha): 20; Plant response rating, Foxtail, Giant ([17]; 500 g ai/ha): 60; Plant response rating, Corn ([18]; 125 g ai/ha): 0; Plant response rating, Corn ([18]; 500 g ai/ha, approx. 10 d): 0; Plant response rating, Rice, Flood ([19]; 250 g ai/ha): 0; Plant response rating, Morningglory ([20]; 125 g ai/ha): 80; Plant response rating, Morningglory ([20]; 500 g ai/ha): 90
CCCn1nc(-c2ccc(F)cc2)nc1C(=O)c1ccnc(C(F)(F)F)c1 [Compound 20]	20	100	0	20	20	30	0	0	20	10	80	90	20	20	20	90	40	90	0	20	Plant response rating, Sedge, Umbrella, Flood ([4]; 125 g ai/ha): 0; Plant response rating, Ducksalad, Flood ([9]; 125 g ai/ha): 0; Plant response rating, Barnyardgrass ([13]; 125 g ai/ha): 0; Plant response rating, Barnyardgrass ([13]; 500 g ai/ha): 20; Plant response rating, Velvetleaf ([14]; 125 g ai/ha): 0; Plant response rating, Velvetleaf ([14]; 500 g ai/ha): 40; Plant response rating, Barnyardgrass, Flood ([15]; 125 g ai/ha): 0; Plant response rating, Barnyardgrass ([16]; 125 g ai/ha): 0; Plant response rating, Barnyardgrass ([16]; 500 g ai/ha, approx. 10 d): 80; Plant response rating, Foxtail, Giant ([17]; 125 g ai/ha): 10; Plant response rating, Foxtail, Giant ([17]; 500 g ai/ha): 10; Plant response rating, Corn ([18]; 125 g ai/ha): 0; Plant response rating, Corn ([18]; 500 g ai/ha, approx. 10 d): 0; Plant response rating, Rice, Flood ([19]; 125 g ai/ha): 0; Plant response rating, Morningglory ([20]; 125 g ai/ha): 10; Plant response rating, Morningglory ([20]; 500 g ai/ha): 10
